Tested on: AR
Experiment: In Vitro AR Agonism Assay (LNAR reporter cell line)
Type: cell-based
Settings: for Relative Maximum Response to Mifepristone: LNAR reporter cells, RPMI + 10% CSS, 18-24 hrs, maximum response of Mifepristone set to 1
Procedure: In Vitro AR Agonism Assay
The AR agonism assay was done in the LNAR reporter cell line which has overexpressed AR and 4×ARE-Luc genes. This cell line is sensitive to even minor partial AR agonism activity in hormone-deprived media (CSS). The assays were done in RPMI (without phenol red)+10% CSS using 6000 LNAR cells/well in 384-well plates and compounds were incubated with cells in […] incubator for 18-24 hrs. OneGlo reagent (25 uL/well) was added and plates were read with luminometer within 3 minutes.
To gauge the AR partial agonism activity, Mifepristone is included as a standard in the assay. AR agonism assay results are quantified by determining the ratio of the maximum response of individual compounds to the maximum response of Mifepristone (arbitrarily set to 1). Values of Table 4 are reported as Relative Maximum Response to Mifepristone. This general trend of AR agonism was shown for the class of compounds described herein.

SMILES | Relative Maximum Response to Mifepristone | partial AR agonism (in concentrations as low as 10 nM)
CC#C[C@]1(O)CC[C@H]2[C@@H]3CCC4=CC(=O)CC[C@@H]4[C@H]3[C@@H](c3ccc(N(C)C)cc3)C[C@@]21C [Compound 3] | B (B: >0.4) | 
COc1ccc([C@H]2C[C@@]3(C)[C@@H](CC[C@@]3(O)C#CC3CC3)[C@@H]3CCC4=CC(=O)CC[C@]4(C)C23)cc1 (stereo partly drawn) [Compound 6] | A (A: ≤0.4) | 
CN(C)c1ccc([C@H]2C[C@@]3(C)[C@@H](CC[C@@]3(O)C#CC(C)(C)C)[C@@H]3CCC4=CC(=O)CC[C@@H]4[C@H]32)cc1 [Compound 7, (8R,9S,10R,11S,13S,14S,17S)-11-(4-(dimethylamino)phenyl)-17-(3,3-dimethylbut-1-yn-1-yl)-17-hydroxy-13-methyl-1,2,6,7,8,9,10,11,12,13,14,15,16,17-tetradecahydro-3H-cyclopenta[a]phenanthren-3-one] | A (A: ≤0.4) | 
COC(C)(C)C#C[C@]1(O)CC[C@H]2[C@@H]3CCC4=CC(=O)CC[C@@H]4[C@H]3[C@@H](c3ccc(N(C)C)cc3)C[C@@]21C [Compound 10, (8R,9S,10R,11S,13S,14S,17S)-11-(4-(Dimethylamino)phenyl)-17-hydroxy-17-(3-methoxy-3-methylbut-1-yn-1-yl)-13-methyl-1,2,6,7,8,9,10,11,12,13,14,15,16,17-tetradecahydro-3H-cyclopenta[a]phenanthren-3-one] | A (A: ≤0.4) | 
CC(C)C#C[C@]1(O)CC[C@H]2[C@@H]3CCC4=CC(=O)CC[C@]4(C)C3[C@@H](c3ccc(N(C)C)cc3)C[C@@]21C (stereo partly drawn) [Compound 13, (8S,10R,11S,13S,14S,17S)-11-(4-(Dimethylamino)phenyl)-17-hydroxy-10,13-dimethyl-17-(3-methylbut-1-yn-1-yl)-1,2,6,7,8,9,10,11,12,13,14,15,16,17-tetradecahydro-3H-cyclopenta[a]phenanthren-3-one] | A (A: ≤0.4) | 
CC#C[C@]1(O)CC[C@H]2[C@@H]3CCC4=CC(=O)CCC4=C3[C@@H](c3ccc(N(C)C)cc3)C[C@@]21C [Mifepristone, reference compound] |  | strong partial AR agonism

From patent publication US11208432B2, “Inhibitors of glucocorticoid receptor” (ORIC Pharmaceuticals, Inc., priority 2015, dated 2021)
